Experimental data reported in US20250313575A1, “MACROCYCLES AS LRRK2 INHIBITORS, PHARMACEUTICAL COMPOSITIONS, AND USES THEREOF” (Merck Sharp & Dohme LLC, priority 2022, published 2025).

Molecular target: GST-tagged truncated human mutant G2019S LRRK2 (Homo sapiens (Human), UniProt Q5S007, G2019S)
Experiment: LRRK2 G2019S Km ATP LanthaScreen assay
Assay type: biochemical
Details: G2019S LRRK2, 134 μM ATP (Km ATP), LRRKtide substrate; for IC50: read-out: LRRK2 pIC50 (converted)
Procedure: Unless otherwise noted, all reactions are magnetically allowed to stir, diethyl ether used in the experiments described below is Fisher ACS certified material stabilized with BHT, and “concentrated” and/or “solvent removed under reduced pressure” means evaporating the solvent from a solution or mixture using a rotary evaporator or vacuum pump. Unless otherwise noted, flash chromatography is carried out on a Teledyne Isco (Lincoln, NE), Analogix (Burlington, WI), or Biotage (Stockholm, SWE) automated chromatography system using a commercially available cartridge as the column. Columns may be purchased from Teledyne Isco, Analogix, Biotage, Varian (Palo Alto, CA), or Supelco (Bellefonte, PA) and are usually filled with silica gel as the stationary phase. Reverse phase prep-HPLC conditions, where used, can be found at the end of each experimental section. Aqueous solutions were concentrated on a Genevac (Ipswich, ENG) or by freeze-drying/lyophilization. Unless otherwise noted, all LRRK2 pIC50 data presented in tables refers to the LRRK2 G2019S Km ATP LanthaScreen™ assay (Life Technologies Corp., Carlsbad, CA) that is described in the Biological Assay section.
The LRRK2 kinase activity reported herein as IC50 values was determined with LanthaScreen™ technology from Life Technologies Corporation (Carlsbad, CA) using GST-tagged truncated human mutant G2019S LRRK2 in the presence of the fluorescein-labeled peptide substrate LRRKtide, also from Life Technologies. The data presented for the […] depending on the specific conditions and reagents used. Assays were performed in the presence of 134 μM ATP (Km ATP). Upon completion, the assay was stopped and phosphorylated substrate detected with a terbium (Tb)-labeled anti-pERM antibody (cat. no. PV4898). The compound dose response was prepared by diluting a 10 mM stock of compound to a maximum concentration of 9.99 μM in 100% dimethylsulfoxide followed by custom fold serial dilution in dimethylsulfoxide nine times. Twenty nanoliters of each dilution was spotted via a Labcyte Echo onto a 384-well black-sided plate (Corning 3575) followed by 15 μl of a 1.25 nM enzyme solution in 1× assay buffer (50 mM Tris pH 8.5, 10 mM MgCl2, 0.01% Brij-35, 1 mM EGTA, 2 mM dithiothreitol, 0.05 mM sodium orthovanadate). Following a 15-minute incubation at room temperature, the kinase reaction was started with the addition of 5 μl of 400 nM fluorescein-labeled LRRKtide peptide substrate and 134 μM ATP solution in 1× assay buffer. The reaction was allowed to progress at ambient temperature for 90 minutes. The reaction was then stopped by the addition of 20 μl of TR-FRET Dilution Buffer (Life Technologies, Carlsbad, CA) containing 2 nM Tb-labeled anti-phospho LRRKtide antibody and 10 mM EDTA (Life Technologies, Carlsbad, CA). After an incubation of 1 h at room temperature, the plate was read on an EnVision multimode plate reader (Perkin Elmer, Waltham, MA) with an excitation wavelength of 337 nm (Laser) and a reading emission at both 520 and 495 nm. Compound IC50s were interpolated from nonlinear regression best fits of the log of the final compound concentration, plotted as a function of the 520/495-nm emission ratio using Activity base. Abase uses a 4 parameter (4P) logistic fit based on the Levenberg-Marquardt algorithm.

GST-tagged truncated human mutant G2019S LRRK2, sequence (Q5S007 970-2527 G2019S): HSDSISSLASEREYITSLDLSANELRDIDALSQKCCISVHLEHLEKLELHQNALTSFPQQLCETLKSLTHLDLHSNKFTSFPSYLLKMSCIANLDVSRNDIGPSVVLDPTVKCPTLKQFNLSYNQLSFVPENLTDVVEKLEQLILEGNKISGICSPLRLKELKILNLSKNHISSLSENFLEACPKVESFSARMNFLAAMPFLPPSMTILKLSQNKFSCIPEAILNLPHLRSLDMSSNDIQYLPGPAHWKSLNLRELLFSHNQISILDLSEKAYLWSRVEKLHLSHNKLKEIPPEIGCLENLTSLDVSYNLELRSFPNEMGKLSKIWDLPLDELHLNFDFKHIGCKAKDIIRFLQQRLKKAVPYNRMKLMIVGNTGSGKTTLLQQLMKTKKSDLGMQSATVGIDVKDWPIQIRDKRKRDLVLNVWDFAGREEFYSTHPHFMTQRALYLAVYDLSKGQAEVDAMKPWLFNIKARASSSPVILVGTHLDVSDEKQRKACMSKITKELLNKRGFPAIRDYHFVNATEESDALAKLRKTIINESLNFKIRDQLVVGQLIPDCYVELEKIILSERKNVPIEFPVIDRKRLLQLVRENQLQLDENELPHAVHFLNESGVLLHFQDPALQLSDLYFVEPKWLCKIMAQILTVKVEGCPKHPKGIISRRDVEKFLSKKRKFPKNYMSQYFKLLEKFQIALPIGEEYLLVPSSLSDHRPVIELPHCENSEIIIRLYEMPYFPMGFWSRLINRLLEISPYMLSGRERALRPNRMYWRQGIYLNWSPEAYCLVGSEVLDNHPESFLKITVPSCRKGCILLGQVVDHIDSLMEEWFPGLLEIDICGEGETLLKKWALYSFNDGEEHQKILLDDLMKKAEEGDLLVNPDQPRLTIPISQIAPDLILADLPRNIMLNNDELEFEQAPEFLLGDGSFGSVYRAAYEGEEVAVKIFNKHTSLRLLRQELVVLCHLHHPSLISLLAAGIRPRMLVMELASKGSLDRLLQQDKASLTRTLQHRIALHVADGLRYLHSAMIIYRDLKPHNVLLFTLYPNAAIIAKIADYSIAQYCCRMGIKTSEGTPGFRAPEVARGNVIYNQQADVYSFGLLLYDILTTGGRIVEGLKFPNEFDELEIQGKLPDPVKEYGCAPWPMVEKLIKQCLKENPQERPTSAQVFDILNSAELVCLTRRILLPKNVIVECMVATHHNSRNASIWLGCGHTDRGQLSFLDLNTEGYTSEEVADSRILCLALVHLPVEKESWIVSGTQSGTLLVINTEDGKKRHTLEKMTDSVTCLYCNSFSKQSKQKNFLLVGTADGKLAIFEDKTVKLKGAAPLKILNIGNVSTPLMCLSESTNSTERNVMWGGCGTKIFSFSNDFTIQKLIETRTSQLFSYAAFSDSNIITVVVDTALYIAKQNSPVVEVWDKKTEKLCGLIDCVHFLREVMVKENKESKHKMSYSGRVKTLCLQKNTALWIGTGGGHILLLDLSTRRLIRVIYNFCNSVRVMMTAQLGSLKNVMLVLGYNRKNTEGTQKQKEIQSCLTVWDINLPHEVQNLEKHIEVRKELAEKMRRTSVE

| SMILES | LRRK2 pIC50 | IC50 [nM] |
| --- | --- | --- |
| N#CC1CC1c1nn(C2CCC2)c2c1OC[C@@H]1COC[C@H]1Nc1nc(ncc1C(F)(F)F)N2 (single isomer, unassigned) [Ex-2.50, (1R,2R)- or (1S,2S)-2-((10aS,13aS)-3-cyclobutyl-8-(trifluoromethyl)-3,4,10a,11,13a,14-hexahydro-10H,13H-5,9-(azeno)furo[3,4-k]pyrazolo[4,3-b][1]oxa[4,6,10]triazacyclotridecin-1-yl)cyclopropane-1-carbonitrile] | 9.77 |  |
| CC(C)c1nn(C2CCOC2)c2c1Nc1ncc(C(F)(F)F)c(n1)N[C@@H]1CC[C@H]1CO2 (stereo partly drawn) [Ex-1.18, (10aR,12aR)-3-isopropyl-1-((R)- or (10aR,12aR)-3-isopropyl-1-((S)-tetrahydrofuran-3-yl)-8-(trifluoromethyl)-1,4,10,10a,11,12,12a,13-octahydro-5,9-(azeno)cyclobuta[k]pyrazolo[3,4-b][1]oxa[4,6,10]triazacyclotridecine] | >10.09 |  |
| O[C@@H]1CC[C@H]1n1nc(C2CC2)c2c1OC[C@@H]1COC[C@H]1Nc1nc(ncc1C(F)(F)F)N2 (single isomer, unassigned) [Ex-6.9, (1R,2R)- or (1S,2S)-2-((10aS,13aS)-3-cyclopropyl-8-(trifluoromethyl)-10a,11,13a, 14-tetrahydro-10H,13H-5,9-(azeno)furo[3,4-k]pyrazolo[3,4-b][1]oxa[4,6,10]triazacyclotridecin-1(4H)-yl)cyclobutan-1-ol] | >10.09 |  |
| Cc1nn(C2CCC2)c2c1OC[C@@H]1COC[C@H]1Nc1nc(ncc1F)N2 [Ex-2.66, (10aS,13aS)-3-cyclobutyl-8-fluoro-1-methyl-3,4,10a,11,13a,14-hexahydro-10H,13H-5,9-(azeno)furo[3,4-k]pyrazolo[4,3-b][1]oxa[4,6,10]triazacyclotridecine] | 8.43 |  |
| FC(F)(F)c1cnc2nc1N[C@@H]1COC[C@H]1COc1cccc(Br)c1N2 [Ex-15.4, (3aS,16aS)-11-bromo-6-(trifluoromethyl)-3a,4,16,16a-tetrahydro-1H,3H,10H-5,9-(azeno)benzo[b]furo[3,4-k][1]oxa[4,6,10]triazacyclotridecine] | 9.12 |  |
| Cc1nn(C2CCC2)c2c1OC[C@@H]1CC[C@H]1Nc1cc(ncc1F)N2 [Ex-13.6, (10aR,12aR)-3-cyclobutyl-8-fluoro-1-methyl-3,4,10,10a,11,12,12a,13-octahydro-5,9-(metheno)cyclobuta[k]pyrazolo[4,3-b][1]oxa[4,6,10]triazacyclotridecine] | <5.00 |  |
| COC1CC(n2nc(C)c3c2Nc2ncc(C(F)(F)F)c(n2)NC2COCC2CO3)C1 (single isomer, unassigned) [Ex-2.32, (10aS,13aS)- or (10aR,13aR)-3-((1R,3S)-3-methoxycyclobutyl)-1-methyl-8-(trifluoromethyl)-3,4,10a,11,13a,14-hexahydro-10H,13H-5,9-(azeno)furo[3,4-k]pyrazolo[4,3-b][1]oxa[4,6,10]triazacyclotridecine] |  | 0.0912 |
| COC1CCC1n1nc(C)c2c1Nc1ncc(C(F)(F)F)c(n1)NC1COCC1CO2 [Ex-2.39, (10aS,13aS)-3-((1R,2R)-(10aS,13aS)-3-((1S,2R)-(10aS,13aS)-3-((1R,2S)-(10aS,13aS)-3-((1R,2R)-(10aR,13aR)-3-((1S,2R)-(10aR,13aR)-3-((1R,2S)-2-methoxycyclobutyl)-1-methyl-8-(trifluoromethyl)-3,4,10a,11,13a,14-hexahydro-10H,13H-5,9-(azeno)furo[3,4-k]pyrazolo[4,3-b][1]oxa[4,6,10]triazacyclotridecine] | 6.32 |  |
| Cc1nn(C2CC2)c2c1OC[C@@H]1CC[C@H]1Nc1nc(ncc1Cl)N2 [Ex-2.60, (10aR,12aR)-8-chloro-3-cyclopropyl-1-methyl-3,4,10,10a,11,12,12a,13-octahydro-5,9-(azeno)cyclobuta[k]pyrazolo[4,3-b][1]oxa[4,6,10]triazacyclotridecine] | 9.41 |  |
| Cc1c2c(nn1C1CC1)Nc1ncc(C(F)(F)F)c(n1)N[C@@H](C)CCO2 (single isomer, unassigned) [Ex-17.1, (R)- or (S)-2-cyclopropyl-3,7-dimethyl-10-(trifluoromethyl)-2,5,6,7,8,14-hexahydro-9,13-(azeno)pyrazolo[4,3-b][1]oxa[4,6,10]triazacyclotridecine] | 6.63 |  |
| Cc1nn(C2CCC2)c2c1OCC1CCCC1Nc1nc(ncc1C(F)(F)F)N2 [Ex-5.5, (10aR,13aR)- or (10aS,13aS)-3-cyclobutyl-1-methyl-8-(trifluoromethyl)-3,4,10a,11,12,13,13a,14-octahydro-10H-5,9-(azeno)cyclopenta[k]pyrazolo[4,3-b][1]oxa[4,6, 10]triazacyclotridecine] | 10.06 |  |
| CC(C)n1nc(CO)c2c1Nc1ncc(C(F)(F)F)c(n1)N[C@@H]1CC[C@H]1CO2 [Ex-6.5, ((10aR,12aR)-3-isopropyl-8-(trifluoromethyl)-3,4,10,10a,11,12,12a,13-octahydro-5,9-(azeno)cyclobuta[k]pyrazolo[4,3-b][1]oxa[4,6,10]triazacyclotridecin-1-yl)methanol] | >10.09 |  |
| CC(C)c1n[nH]c2c1Nc1ncc(C(F)(F)F)c(n1)N[C@@H]1CC[C@H]1CO2 [Ex-1.22, (10aR,12aR)-3-isopropyl-8-(trifluoromethyl)-1,4,10,10a,11,12,12a,13-octahydro-5,9-(azeno)cyclobuta[k]pyrazolo[3,4-b][1]oxa[4,6,10]triazacyclotridecine] | >10.09 |  |
| Cc1nn(C)c2c1OC[C@H]1COC[C@H]1Nc1nc(ncc1C(F)(F)F)N2 (single isomer, unassigned) [Ex-2.25, (10aS,13aR)- or (10aR,13aS)-1,3-dimethyl-8-(trifluoromethyl)-3,4,10a,11,13a,14-hexahydro-10H,13H-5,9-(azeno)furo[3,4-k]pyrazolo[4,3-b][1]oxa[4,6,10]triazacyclotridecine] |  | 28.2 |
| Cn1nc(C2CC2)c2c1OCC1CCC1Nc1nc(ncc1C(F)(F)F)N2 [Ex-1.10, (10aR,12aR)- or (10aS,12aS)-3-cyclopropyl-1-methyl-8-(trifluoromethyl)-1,4,10,10a,11,12,12a,13-octahydro-5,9-(azeno)cyclobuta[k]pyrazolo-[3,4-b][1]oxa[4,6,10]triazacyclo-tridecine] | 6.58 |  |
| FC(F)(F)c1cnc2nc1N[C@@H]1COC[C@H]1COc1ccnc(Cl)c1N2 [Ex-15.5, (3aS,16aS)-11-chloro-6-(trifluoromethyl)-3a,4,16,16a-tetrahydro-1H,3H,10H-5,9-(azeno)furo[3,4-k]pyrido[4,3-b][1]oxa[4,6,10]triazacyclotridecine] | 9.90 |  |
| Cn1nc(C2CC2)c2c1OCC1COCC1Nc1nc(ncc1C(F)(F)F)N2 [Ex-1.7, (10aS,13aS)- or (10aR,13aR)-3-cyclopropyl-1-methyl-8-(trifluoromethyl)-1,4,10a,11,13a,14-hexahydro-10H,13H-5,9-(azeno)furo[3,4-k]pyrazolo[3,4-b][1]oxa[4,6,10]triazacyclotridecine] | >10.09 |  |
| Cc1nn2c(c1C)Nc1ncc(C(F)(F)F)c(n1)N[C@@H](C)CCC2 (single isomer, unassigned) [Ex-16.2, 8,14,15-Trimethyl-5-(trifluoromethyl)-8,9,10,11-tetrahydro-1H,7H-2,6-(azeno)pyrazolo[1,5-a][1,3,5,9]tetraazacyclotridecine] |  | 0.631 |
